Test system: MDA-MB-468
Assay: Antiproliferative activity against human MDA-MB-468 cells assessed as cell growth at 10^-7 M after 48 hrs by sulforhodamine B assay
Type: functional
Details: MDA-MB-468, 48 h, read-out: Activity

Row | SMILES | growth at 0.1 µM [%]
1 | CNC(=O)c1cc(Oc2ccc3nc(NC(=O)Nc4ccc(Cl)c(Cl)c4)sc3c2)ccn1 | 91
2 | CNC(=O)c1cc(Oc2ccc3nc(NC(=O)Nc4ccc(Cl)c(C(F)(F)F)c4)sc3c2)ccn1 | 85

Test system: not listed separately
Assay: Antiproliferative activity against human SF539 cells assessed as cell growth at 10^-4 M after 48 hrs by sulforhodamine B assay
Type: functional
Details: SF-539, 48 h, read-out: Activity

Row | SMILES | growth at 100 µM [%]
3 | CNC(=O)c1cc(Oc2ccc3nc(NC(=O)Nc4ccc(Cl)c(Cl)c4)sc3c2)ccn1 | -72
4 | CNC(=O)c1cc(Oc2ccc3nc(NC(=O)Nc4ccc(Cl)c(C(F)(F)F)c4)sc3c2)ccn1 | -49

Test system: T47D
Assay: Antiproliferative activity against human T47D cells assessed as cell growth at 10^-7 M after 48 hrs by sulforhodamine B assay
Type: functional
Details: read-out: Activity

Row | SMILES | growth at 0.1 µM [%]
5 | CNC(=O)c1cc(Oc2ccc3nc(NC(=O)Nc4ccc(Cl)c(Cl)c4)sc3c2)ccn1 | 106
6 | CNC(=O)c1cc(Oc2ccc3nc(NC(=O)Nc4ccc(Cl)c(C(F)(F)F)c4)sc3c2)ccn1 | 92

Test system: not listed separately
Assay: Antiproliferative activity against human IGROV1 cells assessed as cell growth at 10^-6 M after 48 hrs by sulforhodamine B assay
Type: functional
Details: IGROV-1, 48 h, read-out: Activity

Row | SMILES | growth at 1 µM [%]
7 | CNC(=O)c1cc(Oc2ccc3nc(NC(=O)Nc4ccc(Cl)c(Cl)c4)sc3c2)ccn1 | 98
8 | CNC(=O)c1cc(Oc2ccc3nc(NC(=O)Nc4ccc(Cl)c(C(F)(F)F)c4)sc3c2)ccn1 | 88

Test system: not listed separately
Assay: Antiproliferative activity against human UO31 cells assessed as cell growth at 10^-6 M after 48 hrs by sulforhodamine B assay
Type: functional
Details: UO-31, 48 h, read-out: Activity

Row | SMILES | growth at 1 µM [%]
9 | CNC(=O)c1cc(Oc2ccc3nc(NC(=O)Nc4ccc(Cl)c(Cl)c4)sc3c2)ccn1 | 106
10 | CNC(=O)c1cc(Oc2ccc3nc(NC(=O)Nc4ccc(Cl)c(C(F)(F)F)c4)sc3c2)ccn1 | 108

Test system: not listed separately
Assay: Antiproliferative activity against human SNB19 cells assessed as cell growth at 10^-4 M after 48 hrs by sulforhodamine B assay
Type: functional
Details: SNB-19, 48 h, read-out: Activity

Row | SMILES | growth at 100 µM [%]
11 | CNC(=O)c1cc(Oc2ccc3nc(NC(=O)Nc4ccc(Cl)c(Cl)c4)sc3c2)ccn1 | -74
12 | CNC(=O)c1cc(Oc2ccc3nc(NC(=O)Nc4ccc(Cl)c(C(F)(F)F)c4)sc3c2)ccn1 | -49

Test system: A549
Assay: Antiproliferative activity against human A549/ATCC cells assessed as cell growth at 10^-8 M after 48 hrs by sulforhodamine B assay
Type: functional
Details: A549, 48 h, read-out: Activity

Row | SMILES | growth at 0.01 µM [%]
13 | CNC(=O)c1cc(Oc2ccc3nc(NC(=O)Nc4ccc(Cl)c(Cl)c4)sc3c2)ccn1 | 98
14 | CNC(=O)c1cc(Oc2ccc3nc(NC(=O)Nc4ccc(Cl)c(C(F)(F)F)c4)sc3c2)ccn1 | 104

Test system: not listed separately
Assay: Antiproliferative activity against human HCT15 cells assessed as growth inhibition after 48 hrs by sulforhodamine B assay
Type: functional
Details: HCT-15, 48 h

Row | SMILES | GI50 [µM] | TGI [µM] | LC50 [µM]
15 | CNC(=O)c1cc(Oc2ccc(NC(=O)Nc3ccc(Cl)c(C(F)(F)F)c3)cc2)ccn1 [SORAFENIB] | 2.51 | 12.6 | 
16 | CNC(=O)c1cc(Oc2ccc3nc(NC(=O)Nc4ccc(Cl)c(Cl)c4)sc3c2)ccn1 | 3.71 | > 100 | > 100
17 | CNC(=O)c1cc(Oc2ccc3nc(NC(=O)Nc4ccc(Cl)c(C(F)(F)F)c4)sc3c2)ccn1 | 1.95 |  | > 100

Test system: not listed separately
Assay: Antiproliferative activity against human IGROV1 cells assessed as cell growth at 10^-8 M after 48 hrs by sulforhodamine B assay
Type: functional
Details: IGROV-1, 48 h, read-out: Activity

Row | SMILES | growth at 0.01 µM [%]
18 | CNC(=O)c1cc(Oc2ccc3nc(NC(=O)Nc4ccc(Cl)c(Cl)c4)sc3c2)ccn1 | 99
19 | CNC(=O)c1cc(Oc2ccc3nc(NC(=O)Nc4ccc(Cl)c(C(F)(F)F)c4)sc3c2)ccn1 | 102

Test system: not listed separately
Assay: Antiproliferative activity against human OVCAR3 cells assessed as cell growth at 10^-7 M after 48 hrs by sulforhodamine B assay
Type: functional
Details: OVCAR-3, 48 h, read-out: Activity

Row | SMILES | growth at 0.1 µM [%]
20 | CNC(=O)c1cc(Oc2ccc3nc(NC(=O)Nc4ccc(Cl)c(Cl)c4)sc3c2)ccn1 | 102
21 | CNC(=O)c1cc(Oc2ccc3nc(NC(=O)Nc4ccc(Cl)c(C(F)(F)F)c4)sc3c2)ccn1 | 111

Test system: KM12
Assay: Antiproliferative activity against human KM12 cells assessed as growth inhibition after 48 hrs by sulforhodamine B assay
Type: functional
Details: KM12, 48 h

Row | SMILES | TGI [µM] | GI50 [µM] | LC50 [µM]
22 | CNC(=O)c1cc(Oc2ccc(NC(=O)Nc3ccc(Cl)c(C(F)(F)F)c3)cc2)ccn1 [SORAFENIB] | 7.94 |  | 
23 | CNC(=O)c1cc(Oc2ccc3nc(NC(=O)Nc4ccc(Cl)c(Cl)c4)sc3c2)ccn1 | > 100 | 3 | > 100
24 | CNC(=O)c1cc(Oc2ccc3nc(NC(=O)Nc4ccc(Cl)c(C(F)(F)F)c4)sc3c2)ccn1 | > 100 | 3.41 | > 100

Test system: not listed separately
Assay: Antiproliferative activity against human NCI-ADR-RES cells assessed as growth inhibition after 48 hrs by sulforhodamine B assay
Type: functional
Details: not given

Row | SMILES | GI50 [µM] | TGI [µM] | LC50 (concentration killing 50% of cells) [µM]
25 | CNC(=O)c1cc(Oc2ccc(NC(=O)Nc3ccc(Cl)c(C(F)(F)F)c3)cc2)ccn1 [SORAFENIB] | 2.51 | 7.94 | 
26 | CNC(=O)c1cc(Oc2ccc3nc(NC(=O)Nc4ccc(Cl)c(Cl)c4)sc3c2)ccn1 | 2.3 | 5.09 | > 100
27 | CNC(=O)c1cc(Oc2ccc3nc(NC(=O)Nc4ccc(Cl)c(C(F)(F)F)c4)sc3c2)ccn1 | 2.43 |  | > 100

Test system: not listed separately
Assay: Antiproliferative activity against human OVCAR8 cells assessed as cell growth at 10^-4 M after 48 hrs by sulforhodamine B assay
Type: functional
Details: OVCAR-8, 48 h, read-out: Activity

Row | SMILES | growth at 100 µM [%]
28 | CNC(=O)c1cc(Oc2ccc3nc(NC(=O)Nc4ccc(Cl)c(Cl)c4)sc3c2)ccn1 | -52
29 | CNC(=O)c1cc(Oc2ccc3nc(NC(=O)Nc4ccc(Cl)c(C(F)(F)F)c4)sc3c2)ccn1 | -25

Test system: not listed separately
Assay: Antiproliferative activity against human HL-60(TB) cells assessed as cell growth at 10^-4 M after 48 hrs by sulforhodamine B assay
Type: functional
Details: HL-60, 48 h, read-out: Activity

Row | SMILES | growth at 100 µM [%]
30 | CNC(=O)c1cc(Oc2ccc3nc(NC(=O)Nc4ccc(Cl)c(Cl)c4)sc3c2)ccn1 | 89
31 | CNC(=O)c1cc(Oc2ccc3nc(NC(=O)Nc4ccc(Cl)c(C(F)(F)F)c4)sc3c2)ccn1 | 59

Test system: CCRF-CEM
Assay: Antiproliferative activity against human CCRF-CEM cells assessed as cell growth at 10^-7 M after 48 hrs by sulforhodamine B assay
Type: functional
Details: read-out: Activity

Row | SMILES | growth at 0.1 µM [%]
32 | CNC(=O)c1cc(Oc2ccc3nc(NC(=O)Nc4ccc(Cl)c(Cl)c4)sc3c2)ccn1 | 107
33 | CNC(=O)c1cc(Oc2ccc3nc(NC(=O)Nc4ccc(Cl)c(C(F)(F)F)c4)sc3c2)ccn1 | 99

Test system: NCI-H460
Assay: Antiproliferative activity against human NCI-H460 cells assessed as cell growth at 10^-4 M after 48 hrs by sulforhodamine B assay
Type: functional
Details: NCI-H460, 48 h, read-out: Activity

Row | SMILES | growth at 100 µM [%]
34 | CNC(=O)c1cc(Oc2ccc3nc(NC(=O)Nc4ccc(Cl)c(Cl)c4)sc3c2)ccn1 | -17
35 | CNC(=O)c1cc(Oc2ccc3nc(NC(=O)Nc4ccc(Cl)c(C(F)(F)F)c4)sc3c2)ccn1 | 10

Test system: MDA-MB-231
Assay: Antiproliferative activity against human MDA-MB-231 cells assessed as cell growth at 10^-4 M after 48 hrs by sulforhodamine B assay
Type: functional
Details: MDA-MB-231, 48 h, read-out: Activity

Row | SMILES | growth at 100 µM [%]
36 | CNC(=O)c1cc(Oc2ccc3nc(NC(=O)Nc4ccc(Cl)c(Cl)c4)sc3c2)ccn1 | -44
37 | CNC(=O)c1cc(Oc2ccc3nc(NC(=O)Nc4ccc(Cl)c(C(F)(F)F)c4)sc3c2)ccn1 | -53

Test system: not listed separately
Assay: Antiproliferative activity against human HOP62 cells assessed as cell growth at 10^-7 M after 48 hrs by sulforhodamine B assay
Type: functional
Details: HOP-62, 48 h, read-out: Activity

Row | SMILES | growth at 0.1 µM [%]
38 | CNC(=O)c1cc(Oc2ccc3nc(NC(=O)Nc4ccc(Cl)c(Cl)c4)sc3c2)ccn1 | 112
39 | CNC(=O)c1cc(Oc2ccc3nc(NC(=O)Nc4ccc(Cl)c(C(F)(F)F)c4)sc3c2)ccn1 | 95

Test system: MDA-MB-468
Assay: Antiproliferative activity against human MDA-MB-468 cells assessed as cell growth at 10^-6 M after 48 hrs by sulforhodamine B assay
Type: functional
Details: MDA-MB-468, 48 h, read-out: Activity

Row | SMILES | growth at 1 µM [%]
40 | CNC(=O)c1cc(Oc2ccc3nc(NC(=O)Nc4ccc(Cl)c(Cl)c4)sc3c2)ccn1 | 86
41 | CNC(=O)c1cc(Oc2ccc3nc(NC(=O)Nc4ccc(Cl)c(C(F)(F)F)c4)sc3c2)ccn1 | 64
